Data: ChEMBL document CHEMBL1131433, “The bioactive conformation of aminoalkylindoles at the cannabinoid CB1 and CB2 receptors: insights gained from (E)- and (Z)-naphthylidene indenes” (J Med Chem, 1998)

Legend:
Cavia porcellus [1] = species on record: Cavia porcellus; assay: Compound was evaluated for inhibition of electrically evoked contractions of the myenteric plexus-longitudinal muscle of the Guinea pig small intestine; type: functional; settings: Muscle tissue
Cavia porcellus [2] = species on record: Cavia porcellus; assay: Compound was evaluated for maximum inhibition of electrically evoked contractions of the myenteric plexus-longitudinal muscle of the Guinea pig small intestine; type: functional; settings: Muscle tissue

CC1=C(CCN2CCOCC2)c2ccccc2C1=Cc1cccc2ccccc12 [listing 1 of 2 here] gave an EC50 (Cavia porcellus [1]) of 0.0529 µM.

In the case of C1=C(CCN2CCOCC2)c2ccccc2/C1=C/c1cccc2ccccc12, the EC50 (Cavia porcellus [1]) is reported as 0.00657 µM.

In the case of C1=C(CCN2CCOCC2)c2ccccc2/C1=C\c1cccc2ccccc12, the EC50 (Cavia porcellus [1]) is reported as 0.283 µM.

Molecule CC1=C(CCN2CCOCC2)c2ccccc2C1=Cc1cccc2ccccc12 [listing 2 of 2 here] has an EC50 (Cavia porcellus [1]) of over 3.16 µM.

Work on Cc1c(C(=O)c2cccc3ccccc23)c2cccc3c2n1[C@H](CN1CCOCC1)CO3 [WIN-552122] yielded an EC50 (Cavia porcellus [1]) of 0.00492 µM and an Emax (Cavia porcellus [2]) of 61.9%.
